One may read the IC50 as the concentration at which inhibition is half-maximal.

SMILES strings stand for the structures.

The target in experiment [1] is Adenosine receptor A2a (Homo sapiens, UniProt P29274). As to the kind of experiment: Binding Affinities to Different Adenosine Receptors: The compounds at different concentrations were incubate with hA1 membrane (from PerkinElmer) and [3H]-8-Cyclopentyl-1,3-dipropylxanthine (DPCPX) for 50 min at 25° C., meanwhile 100 μL 0.5% PEI solution was added into […]-96 GF/B filter plate for 60 min at 4° C., then […]-96 GF/B filter plate was washed twice with 50 ml wash buffer, the membrane mix was transferred into […]-96 GF/B filter plate, and the filter plate was washed 4 times before incubated at 55° C. for 10 min. At last, […] ULTIMA GOLD was added into each well, and CPM was read by TopCount.The compounds at different concentrations were incubate with hA2a membrane (from PerkinElmer) and [3H]-CGS21680 for 90 min at 25° C., meanwhile 100 μL 0.5% PEI solution was added into […]-96 GF/B filter plate for 60 min at 4° C., then […]-96 GF/B filter plate was washed twice with 50 ml wash buffer, the membrane mix was transferred into […]-96 GF/B filter plate, and the filter plate was washed 4 times before incubated at 55° C. for 10 min. At last, […] ULTIMA GOLD was added into each well, and CPM was read by TopCount.The compounds at different concentrations were incubate with hA2b membrane (from PerkinElmer) and [3H]-DPCPX for 60 min at 27° C., and the binding reactions were stopped by rapid filtration through 0.5% BSA coated […]-96 GF/C plates using cell harvester. […].

The target in another experiment is T1, Adenosine receptor A1 (Homo sapiens, UniProt P30542).
T1 sequence (P30542 whole entry): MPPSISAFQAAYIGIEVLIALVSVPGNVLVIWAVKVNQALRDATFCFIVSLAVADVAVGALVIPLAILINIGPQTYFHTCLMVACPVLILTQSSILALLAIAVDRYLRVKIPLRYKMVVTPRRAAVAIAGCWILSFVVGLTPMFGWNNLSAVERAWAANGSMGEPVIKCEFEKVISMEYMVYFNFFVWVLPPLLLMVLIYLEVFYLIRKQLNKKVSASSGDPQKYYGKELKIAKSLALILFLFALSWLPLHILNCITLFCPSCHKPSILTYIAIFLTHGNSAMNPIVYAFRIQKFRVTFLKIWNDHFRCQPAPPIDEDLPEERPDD
The experiment is described as follows: (§1) FLIPR and cAMP Inhibition Assay: hADORA1/CHO (hA1 expressing) cells (Genscript) were plated at 1×10^4 cells/well into 384-well polystyrene plates one day before starting the experiment. On the day of experiment, the supernatant was discard and replaced with 40 µL of dye (FLIPR calcium 5 Assay Kit) per well and the plates were incubated for 60 mins at 37° C. plus 5% CO2. Then testing compounds were added at different concentrations for FLIPR™ inhibition assay. After a 400 s incubation with compound, […] was added into the cells, and the signal was captured by FLIPR.hA2a/CHO, hA2b/CHO and mA2a/CHO (Genscript) were plated at 5×10^3 cells/well into 384-well polystyrene plates at the day of experiment. Compounds were pre-incubated with cells for 30 min at 37° C., 5% CO2. Then […] was added to the cells and incubated for 30 min at 37° C., 5% CO2. Detection reagent (CISBIO) was added and the plates were incubated for 60 min at room temperature. The signal was captured by Envision.

The target in experiment [2] is Adenosine receptor A2a (Mus musculus, UniProt Q60613). The experiment is described as §1.
The target in another experiment is T2, Adenosine receptor A2b (Homo sapiens, UniProt P29275).
T2 sequence (P29275 whole entry): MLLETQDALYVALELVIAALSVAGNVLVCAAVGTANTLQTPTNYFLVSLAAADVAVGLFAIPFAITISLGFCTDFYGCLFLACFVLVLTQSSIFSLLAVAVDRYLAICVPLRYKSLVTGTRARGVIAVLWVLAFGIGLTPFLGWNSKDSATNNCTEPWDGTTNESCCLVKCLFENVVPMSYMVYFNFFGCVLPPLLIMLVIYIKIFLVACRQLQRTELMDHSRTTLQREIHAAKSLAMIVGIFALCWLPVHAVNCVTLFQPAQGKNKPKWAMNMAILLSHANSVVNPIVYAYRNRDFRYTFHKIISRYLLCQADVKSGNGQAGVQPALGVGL
The description is as §1.

Adenosine receptor A2a (Mus musculus, UniProt Q60613), sequence (Q60613 whole entry): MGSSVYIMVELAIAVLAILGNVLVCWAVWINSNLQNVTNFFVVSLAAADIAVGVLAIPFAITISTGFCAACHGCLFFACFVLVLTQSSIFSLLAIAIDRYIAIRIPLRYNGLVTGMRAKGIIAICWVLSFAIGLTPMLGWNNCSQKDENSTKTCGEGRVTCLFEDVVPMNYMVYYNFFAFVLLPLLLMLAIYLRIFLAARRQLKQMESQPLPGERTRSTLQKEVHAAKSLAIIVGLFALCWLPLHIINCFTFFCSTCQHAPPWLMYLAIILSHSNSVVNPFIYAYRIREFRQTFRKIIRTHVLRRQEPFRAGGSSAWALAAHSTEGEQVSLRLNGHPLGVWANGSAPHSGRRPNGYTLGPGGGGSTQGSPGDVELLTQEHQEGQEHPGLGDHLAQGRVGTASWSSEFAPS
Adenosine receptor A2a (Homo sapiens, UniProt P29274), sequence (P29274 whole entry): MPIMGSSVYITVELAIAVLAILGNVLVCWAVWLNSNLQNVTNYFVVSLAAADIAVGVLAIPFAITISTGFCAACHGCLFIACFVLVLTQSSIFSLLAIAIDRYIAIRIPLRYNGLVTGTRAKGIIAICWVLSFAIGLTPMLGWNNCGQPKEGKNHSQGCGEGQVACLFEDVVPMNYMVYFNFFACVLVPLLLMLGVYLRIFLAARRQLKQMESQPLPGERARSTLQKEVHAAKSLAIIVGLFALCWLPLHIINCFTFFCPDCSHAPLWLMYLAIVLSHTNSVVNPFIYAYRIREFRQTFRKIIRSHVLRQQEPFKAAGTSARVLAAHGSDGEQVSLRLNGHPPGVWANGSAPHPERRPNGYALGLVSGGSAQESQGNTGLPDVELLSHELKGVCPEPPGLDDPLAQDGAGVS

For `Nc1nc(-n2ccnn2)c(-c2ccc3nccn3c2)c2nc(Cc3ncccc3F)nn12`, the IC50 on Adenosine receptor A2a [1] is 103 nM; at Adenosine receptor A1, 779 nM; at Adenosine receptor A2a [2] it was 170 nM; at Adenosine receptor A2b, 1110 nM.
As for `Cc1cnc2ccc(-c3c(N4CCOCC4)nc(N)n4nc(Cc5c(F)cccc5F)nc34)cn12`, the IC50 at Adenosine receptor A2a [1] is 0.2 nM; at Adenosine receptor A2a [2] it was 2.9 nM; on Adenosine receptor A2b, 44.5 nM.
